{"source": "paper PMC11219860", "about": "“A chemogenetic approach for dopamine imaging with tunable sensitivity” (Nature Communications, 2024)", "key": {"[1]": {"molecular_target": "T1, msDRD2 (Mus musculus, UniProt P61168)", "T1 construct": "expressed in transfected cells; host or cells: HEK293T", "T1 sequence (P61168 whole entry)": "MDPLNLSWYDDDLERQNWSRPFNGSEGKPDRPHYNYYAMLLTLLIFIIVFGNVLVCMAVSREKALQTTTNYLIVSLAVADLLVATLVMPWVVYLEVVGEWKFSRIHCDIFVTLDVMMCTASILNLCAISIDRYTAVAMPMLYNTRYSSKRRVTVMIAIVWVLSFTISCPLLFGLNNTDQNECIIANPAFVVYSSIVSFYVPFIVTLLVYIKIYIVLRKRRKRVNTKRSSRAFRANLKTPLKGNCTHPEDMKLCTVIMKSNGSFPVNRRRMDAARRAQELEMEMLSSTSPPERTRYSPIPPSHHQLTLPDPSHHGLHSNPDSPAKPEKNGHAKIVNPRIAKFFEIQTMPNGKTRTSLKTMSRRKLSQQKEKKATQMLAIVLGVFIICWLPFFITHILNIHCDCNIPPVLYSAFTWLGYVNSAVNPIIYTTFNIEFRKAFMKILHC", "experiment": "NanoBit complementation assay of mini-Gi recruitment", "assay_type": "cell-based", "protocol": "To measure the effect of DETQ on mini-G protein recruitment by different GPCRs we used a Nanoluciferase (NanoBit)-based complementation assay[26],[27]. For this HEK293T cells were seeded in six-well plates (Techno Plastic Products) at a density of 300,000 cells per well and co-transfected with plasmids encoding either hmDRD1, msDRD1, msDRD2, msDRD5, msADRA1a, msβ2AR or ms5HT6 carrying a C-terminally fused SmBiT, in combination with the corresponding mini-G protein probe[78] (mini-Gs: for DRD1, DRD5, β2AR, 5HT6R; mini-Gq: for ADRA1a; or mini-Gi: for DRD2), which were N-terminally fused to LgBiT, in a 1:1 DNA ratio using Effectene transfection reagent (Qiagen). […] The plate was incubated at 37 °C for 30 min, before the luminescence signal was measured at 37 °C using a Tecan Spark plate reader before and after the manual addition of 25 µl of either ligand solution (final concentrations ranging from 1 nM to 100 µM), pure Fluorobrite-DMEM or 25 µl of a DETQ solution (1 µM final concentration).\nFor in vitro luminescence assays, ligand traces were divided by buffer traces, the area under the curve for each trace was calculated using GraphPad Prism, values were normalized and fitted as dose response curve. […] The statistical significance was determined using Welch’s ANOVA followed by Dunnett’s multiple comparison test (comparison of ligand or vehicle to ligand). […]"}, "[2]": {"tested_on": "dLight1.3b", "experiment": "Multi-fiber photometry of dLight1.3b across brain regions", "assay_type": "in vivo, mouse", "conditions": "mean ± SEM", "description": "We used a light emitting diode (LED, M470L5 Thorlabs) at the 470-nm central wavelength for excitation of dLight1.3b. To achieve stable continuous operation, LEDs were run at 80% of maximal output power corresponding to an excitation power of ~1 mW/mm^2 per fiber channel. LED light was collimated with the 16 mm condenser lens (ACL25416U-A, Thorlabs). A microscope objective (TL4x-SAP; Thorlabs) coupled excitation light into the respective array of 12-fibers (Sylex). A dichroic beamsplitter (F58-486 dual line, AHF) coupled the excitation light into the objective (TL4x-SAP, Thorlabs) and transmitted the fluorescence in the dLight1.3b emission spectral window. To separate fluorescence signals from residuals of the excitation light and to minimize auto-fluorescence generated in a broader spectral range we used an emission filter (525/50 nm, F37-516, AHF, for dLight1.3b). To image the end face of the fiber array onto the camera we used a 100-mm focal tube lens (TTL100-A, Thorlabs). […]\nFluorescence signals were expressed as percentage ΔF/F0 relative to the fluorescence baseline. The fluorescence baseline was defined as the minimal level of the signal after subtracting the auto-fluorescence baseline, that is the level of fluorescence estimated prior to the mouse connection. Because in our experiment we wanted to estimate the slow DETQ decay times, we fitted the second-order polynomial trend to the recorded fluorescence signals. […] In all measured traces we visually verified the quality of fit. […] To analyse the ΔF/F0 temporal dynamics at multiple temporal scales separately, we decomposed the fluorescence traces with the wavelet transform (cwt function, MATLAB). We separately analysed measurement traces (30 min before and 30 min after the injection). […] After we compared across independent channels and mice contribution of various temporal scales (in the range of 1−30 seconds) to the recorded ΔF/F0. […] To compare the temporal scales recorded before and after the DETQ injection, during the same session, we used a non-parametric Wilcoxon signed-rank test."}, "[3]": {"tested_on": "human DRD1 (hmDRD1)", "conditions": "cited from earlier work"}, "[4]": {"parameters": "method as in Rajagopal et al., 2024", "conditions": "ref Rajagopal et al., 2024, cited from earlier work"}}, "note": "Like-named read-outs stand apart in the source and are kept apart here.", "data": [{"smiles": "C[C@H]1c2cccc(C(C)(C)O)c2C[C@H](CO)N1C(=O)Cc1c(Cl)cccc1Cl", "note": "[DETQ, 2-(2,6-dichlorophenyl)-1-((1S,3R)-3-(hydroxymethyl)-5-(2-hydroxypropan-2-yl)-1-methyl-3,4-dihydroisoquinolin-2(1H)-yl)ethan-1-one]", "values": [{"measurement": "agonist mode: direct agonist effect", "setting": "[1]; DETQ 1 µM alone", "value": "no direct agonist effect"}, {"measurement": "allosteric modulator mode: effect on agonist dose-response", "setting": "[1]; DETQ 1 µM, DA", "value": "No allosteric effect"}, {"measurement": "peak ΔF/F0 fluorescence", "setting": "[2]; CPu", "value": "28.3 ± 6.27", "unit": "%"}, {"measurement": "peak ΔF/F0 fluorescence", "setting": "[2]; NAc", "value": "22.3 ± 6.11", "unit": "%"}, {"measurement": "peak ΔF/F0 fluorescence", "setting": "[2]; PFC", "value": "6.8 ± 2.39", "unit": "%"}, {"measurement": "Kb", "setting": "[3]", "value": 0.0114, "unit": "µM"}, {"measurement": "maximal potentiation of dopamine", "setting": "[3]; human clones, ref Hao et al., 2019, Wang et al., 2018", "value": "75-85%"}, {"measurement": "in vitro potency as a D1PAM at the hD1 receptor", "setting": "[3]; ref Svensson et al., 2017, Hao et al., 2019", "value": 0.011, "unit": "µM"}, {"measurement": "deficits in Novel Object Recognition and Social Interaction", "setting": "[4]; aged hD1 mice, PO 3-10 mg/kg", "value": "fully reversed these deficits"}, {"measurement": "deficits in Novel Object Recognition and Social Interaction", "setting": "[4]; aged wild type mice", "value": "failed to reverse these deficits"}]}]}
